Publication PMC11619365, “Histone deacetylase 2 and 3 of Sarcoptes scabiei: characterization of a potential drug target” (Microbiology Spectrum, 2024)

How the values were obtained:
Assay type in all cases: biochemical
rSsHDAC-2 = molecular target: T1, rSsHDAC-2 (Sarcoptes scabiei, UniProt A0A834RGW6); test: fluorogenic trypsin-coupled deacetylase assay; conditions: Boc-Lys(ε-Ac)-AMC substrate buffer 100 µM (25 of 50 µL), HEPES pH 8.0, 1 mM MgCl2, 37 °C, 2 h; inhibitor concentration as printed, but 1 µL of it added to 50 µL, so final concentration unclear
T1 sequence (A0A834RGW6 1-304): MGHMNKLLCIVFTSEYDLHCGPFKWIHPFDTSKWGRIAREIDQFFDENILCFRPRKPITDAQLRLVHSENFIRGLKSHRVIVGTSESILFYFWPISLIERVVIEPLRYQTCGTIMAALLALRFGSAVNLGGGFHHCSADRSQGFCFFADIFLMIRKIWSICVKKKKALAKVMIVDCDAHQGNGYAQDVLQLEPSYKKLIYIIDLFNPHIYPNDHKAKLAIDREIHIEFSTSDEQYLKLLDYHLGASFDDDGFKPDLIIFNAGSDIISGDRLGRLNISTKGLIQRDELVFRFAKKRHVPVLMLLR

rSsHDAC-3 [1] = molecular target: T2, rSsHDAC-3 (Sarcoptes scabiei, UniProt A0A834REN1); test: fluorogenic trypsin-coupled deacetylase assay (excitation […] nm, emission […] nm); conditions: HEPES pH 8.0, 1 mM MgCl2, 37 °C, 2 h
T2 construct: ORF 411 residues (1,236 bp; amplified fragment printed as around 1,000 bp), pET32a(+) N-terminal Trx/His tag kept (about 18 kDa), 63 kDa on SDS-PAGE, E. coli BL21(DE3), soluble, Ni-NTA; no co-repressor partner
T2 sequence (A0A834REN1 1-411): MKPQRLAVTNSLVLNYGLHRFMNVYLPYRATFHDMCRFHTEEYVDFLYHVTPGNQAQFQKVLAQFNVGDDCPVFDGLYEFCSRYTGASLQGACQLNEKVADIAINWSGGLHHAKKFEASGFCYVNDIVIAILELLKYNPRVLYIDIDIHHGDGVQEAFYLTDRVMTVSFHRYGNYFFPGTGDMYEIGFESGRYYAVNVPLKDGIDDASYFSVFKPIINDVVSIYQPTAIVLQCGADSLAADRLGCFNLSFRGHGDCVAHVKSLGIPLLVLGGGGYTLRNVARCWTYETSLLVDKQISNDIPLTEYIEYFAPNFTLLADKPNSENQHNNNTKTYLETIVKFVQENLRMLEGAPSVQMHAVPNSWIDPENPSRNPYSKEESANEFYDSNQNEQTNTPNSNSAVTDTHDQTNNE

rSsHDAC-3 [2] = molecular target: T2, rSsHDAC-3; test: fluorogenic trypsin-coupled deacetylase assay

COc1ccccc1NC(=O)NCc1ccc(C(=O)NO)cc1 [Elevenostat]
% inhibition at 10 μM (rSsHDAC-2): 81.2%

CC(=O)NCCCC[C@H](NC(=O)OC(C)(C)C)C(=O)Nc1ccc2c(C)cc(=O)oc2c1 [Boc-Lys(ε-Ac)-AMC]
fluorogenic trypsin-coupled deacetylase assay (excitation 355 nm, emission 460 n) (rSsHDAC-3 [1]): whereas the intensity in the rSsHDAC-3 group increased significantly

Nc1cc(F)ccc1NC(=O)/C=C/c1cnn(C/C=C/c2ccccc2)c1 [RGFP966]
inhibition at 10 µM (rSsHDAC-3 [2]): 68.9%
